The nature of this data set: Human HepG2 cell viability assay in 384 well format. The format is toxicity, cell-based. Further details: dose 125 nL, time 70.5 hour; concentration not given beside the values. As to conditions: HepG2 cells, read-out: Inhibition.

Consider `CCc1nc(CNC(=O)C2CCC(=O)N(Cc3ccccc3F)C2)no1` (stereo unspecified), for which the cytotoxicity at 70.5 h is -8.67%.

Turning to `CC(C)Cc1cc(C(=O)NCC2CCCN(c3ccccn3)C2)on1` (stereo unspecified), the cytotoxicity at 70.5 h was 9.21%. For the compound `CSCC[C@@H](CO)n1ccnc1-c1ccc(C)o1`, the cytotoxicity at 70.5 h came to 0.0887%. In the case of `O=C1CCC(C(=O)N2CCOC(Cc3ccc(F)cc3)C2)=NN1` (stereo unspecified) it was -11.8%; in that of `Cc1nn(C)c2nc(N3CCCCC3c3cccnc3)sc12` (stereo unspecified), -4.09%; in that of `CN(CCO)Cc1nnc(C2CCN(C[C@H]3[C@@H]4CNC[C@@H]43)CC2)n1C`, 9.78%. Next, `CCOC(=O)CCCNc1nc(C(C)(C)C)nc2c1cnn2C`: -3.02%; `COc1ccc(N2CCN(Cc3nc(CSC)no3)CC2=O)cc1`: 4.47%. On to `CCn1ncnc1CN1CCC(CNC(=O)c2cccnc2O)C1` (stereo unspecified), for which the cytotoxicity at 70.5 h was -4.94%.

Consider `Cc1cc(N(C)Cc2c(C)noc2C)n2nc(C)c(C)c2n1`, for which the cytotoxicity at 70.5 h stood at 3.35%. Next, `Cc1ccc(N2CCC(c3[nH]ncc3Cc3ccccc3)CC2)nn1`: -10%. Consider `O=C(C(c1ccc(F)cc1)N1CCCCC1)N1CCn2cncc2C1` (stereo unspecified), for which the cytotoxicity at 70.5 h was -1.97%. For `CCc1cc(NCCN2CCNC2=O)n2nc(C)c(C)c2n1`, the cytotoxicity at 70.5 h is -11.4%. Next, `Cc1cc2n(n1)CCN(c1nc(N(C)C)nc3c1CCNC3)C2`: 14.4%; `CCCc1cc(N2CCC(N[C@H]3CC[C@H](O)CC3)CC2)nc(C)n1`: -4.54%; `CCN(CC)C(=O)[C@@H]1C[C@H](NC(=O)c2ccn(C(C)(C)C)c2)CN1C`: -1.68%. Consider `OCC1CCCCN1CCn1ccnc1-c1nc2ccccc2[nH]1` (stereo unspecified), for which the cytotoxicity at 70.5 h is -2.11%. In the case of `CCc1ccccc1OCCN1CCC(NS(C)(=O)=O)CC1` it was 3.87%.

For the compound `CSCCc1nc(-c2ccc3c(c2)OCO3)n(C)n1`, the cytotoxicity at 70.5 h is -4.21%. Next, `Cc1ccc2[nH]c(CNC(=O)C3CC4(CCNCC4)CN3C)nc2c1C` (stereo unspecified): 50.4%; `OC[C@@H]1CCCN1Cc1cn(C2CCN(C3CCCC3)CC2)nn1`: -4.14%; `Cn1cccc1-c1cc(C(=O)N2CCCCC2c2ccc(F)cc2)[nH]n1` (stereo unspecified): -3.93%. With `CC(=O)N[C@@H]1CN(C(=O)c2ccoc2)C[C@H]1c1ccc(C)cc1`, the cytotoxicity at 70.5 h is -13.3%. Turning to `CS(=O)(=O)NC1CCN(CCOCc2ccccc2)CC1`, the cytotoxicity at 70.5 h was -6.45%. Turning to `Cc1ccc(-c2ncc(C(=O)N3CCN4CCCCC4C3)c(O)n2)cc1` (stereo unspecified), the cytotoxicity at 70.5 h was -4.08%. In the case of `O=C(NCc1nc(C2CCCCC2)no1)C1CC(=O)N(C2CC2)C1` (stereo unspecified) it was 5.86%. In the case of `Cc1ccc(NC2(C(=O)NC(C)c3ncn[nH]3)CCCC2)cc1` (stereo unspecified), the cytotoxicity at 70.5 h stood at 6.6%.

Regarding `Cc1ccccc1CC(=O)N1C[C@H]2CC[C@@H]1CN(Cc1cccnc1)C2`, the cytotoxicity at 70.5 h was -4.12%.

`CCc1ncc(CN2CCC(CCc3ccccc3)CC2)cn1`: the cytotoxicity at 70.5 h turned out to be 20.8%. Turning to `CCOc1ccc(CN(CCOC)C(=O)c2ccncc2Cl)cc1`, the cytotoxicity at 70.5 h is -3.6%. For `Cc1nc(N2CCCC2C(=O)NCc2ccsc2)nc2ccccc12` (stereo unspecified), the cytotoxicity at 70.5 h is -6.09%. In the case of `Cn1c(CN2CC[C@](C)(O)C(C)(C)C2)cc2ccccc21` it was -5.32%; in that of `O=C(c1c[nH]cn1)N1CCC(n2cc(-c3ccsc3)nn2)CC1`, 18%. With `CCCc1nc(CN(CC)Cc2ccc(S(C)(=O)=O)cc2)no1`, the cytotoxicity at 70.5 h was found to be 10.1%.

As for `Cn1c(-c2ccccc2Cl)nc2cc(C(=O)NCCS(C)(=O)=O)cnc21`, the cytotoxicity at 70.5 h is -7.15%. In the case of `CN(CCC(O)c1ccccc1)c1cc(C2CC2)ncn1` (stereo unspecified) it was -6.59%; in that of `CO[C@H]1CN(C(C)C)C[C@@H]1NC(=O)Nc1ccc(C(F)(F)F)cc1`, -5.18%. Next, `CCNC(=O)C1CCN(Cc2ccc(C(=O)Nc3cnns3)cc2)C1` (stereo unspecified): 1.67%; `Cc1ccccc1C(CNc1ncnc2c1CCNC2)N(C)C` (stereo unspecified): -7.27%; `Cc1ccnc(N2CCN(C3CCS(=O)(=O)C3)CC2)n1` (stereo unspecified): -13.6%. Consider `COCCCN(Cc1cnc(C2CCCCC2)nc1)C1CCN(C)CC1`, for which the cytotoxicity at 70.5 h was -16.3%. Next, `CCCN1C[C@H]2CC[C@@H]1CN(C(=O)Cc1c(C)nc(CC)[nH]c1=O)C2`: -8.7%; `CN(C)C1CCN(C(=O)c2cccc(S(=O)(=O)NCC3(C)COC3)c2)C1` (stereo unspecified): -9.11%.

On to `Cc1cc(C(=O)N(C)Cc2ccoc2)c(NC(=O)C(C)(C)C)s1`, for which the cytotoxicity at 70.5 h was -3.77%. For `CCc1nnc(CNC(=O)CCC2CCCN(C)C2)s1` (stereo unspecified), the cytotoxicity at 70.5 h is -0.522%. As to `Cc1nc(N(C)C)ncc1C(=O)N[C@H]1Cc2ccccc2[C@@H]1N`, the cytotoxicity at 70.5 h is -5.1%.

Turning to `CCCn1ccnc1-c1nccn1CCC(N)=O`, the cytotoxicity at 70.5 h was -7.75%. Next, `CCC[C@@H]1CN(C(=O)c2cc(-c3cccs3)n(C)n2)C[C@H]1N(C)C`: -8.43%. Next, `COc1nc2c(cc1C(=O)NCc1noc(-c3ccco3)n1)CCC2`: -7.17%; `CCN(Cc1noc(C2CCC2)n1)C(=O)CCc1cc2n(n1)CCNC2`: -7.31%; `Cc1nc(N2C[C@@H](CN3CCCN(C)CC3)[C@@H](CO)C2)c2ccsc2n1`: 11.6%.

For the compound `CCN1CCC(CC(=O)NCCc2nc(N)cc(O)n2)CC1`, the cytotoxicity at 70.5 h was -2.8%. Turning to `COc1ccc(OC)c(-c2nc(CN(C)Cc3noc(C)n3)c(C)o2)c1`, the cytotoxicity at 70.5 h is -21.2%.

Consider `CN1CCC(CNC(=O)CCSc2ccc3c(c2)OCCO3)C1` (stereo unspecified), for which the cytotoxicity at 70.5 h was -2.01%. For `COc1cccc(CNC(=O)N2CCN3CCNC(=O)C3C2)c1` (stereo unspecified), the cytotoxicity at 70.5 h was -10.4%.

As for `CCOc1ncccc1-c1cc2c(cc1C(N)=O)OCO2`, the cytotoxicity at 70.5 h is -3.42%.

Take `COc1ccc([C@@H](C)n2ccnc2-c2cc3n(n2)CCCNC3)cc1`: the cytotoxicity at 70.5 h was determined as 18.8%. Next, `COCCCN1CC2(CCN(C(=O)c3ccc(=O)n(C)c3)CC2)CC1=O`: -9.99%; `CN(Cc1cccnc1)c1nc(-c2ccccn2)nc2c1CCNCC2`: -5.18%; `CC(C)c1nnsc1CNC(=O)C1CCN(C(=O)C2CC2)CC1`: 2.6%. In the case of `CCN1CCCC1CN(Cc1cc[nH]n1)CC1CCN(CCOC)CC1` (stereo unspecified) it was 6.24%; in that of `N#Cc1ccccc1CN1CCC2(CC1)CC(c1ccccc1)C(=O)N2` (stereo unspecified), 14%; in that of `CCOC(=O)C1(Cc2cccc(Cl)c2)CCCN(Cc2ncc[nH]2)C1` (stereo unspecified), 0.345%. Next, `Cc1cc(CC(C)NC2CCSCC2)[nH]n1` (stereo unspecified): -5.1%; `COc1ccc(C(=O)NC2CC2)c(OC2CCN(CCCSC)CC2)c1`: -1.03%; `O=C(O)[C@H]1C[C@H](C(=O)NCc2ccncc2)CN(CCC(F)(F)F)C1`: -6.65%.

With `N[C@@H]1c2ccccc2C2(CCN(C(=O)c3cncc(Cl)c3)CC2)[C@H]1O`, the cytotoxicity at 70.5 h was 19%.

For the compound `Cc1ccc(CN(C)C(C(=O)O)c2ccc3c(c2)OCO3)o1` (stereo unspecified), the cytotoxicity at 70.5 h was -7.76%.

In the case of `COc1ccc(N2CCN(C(=O)Cn3nccc3C)CC2(C)C)cc1`, the cytotoxicity at 70.5 h was -0.615%. In the case of `O=C(C1CCCN(C2CCOCC2)C1)N1Cc2ccccc2C1` (stereo unspecified), the cytotoxicity at 70.5 h was determined as 13%. Next, `Cn1c(=O)oc2ccc(NC(=O)N3CCSCC3)cc21`: -18.1%; `COc1ccc2c(C)c(C(=O)NC3CCN(S(C)(=O)=O)CC3)oc2c1`: -2.46%.

As to `CCC[C@H]1CN(c2nccc(OC)n2)C[C@@H]1NC(=O)C1CCOCC1`, the cytotoxicity at 70.5 h is -6.8%. In the case of `O[C@H]1[C@H](NCCc2cnccn2)c2ccccc2C12CCNCC2` it was -3.75%. For `CCCC1(CO)CCCN(Cc2nccs2)C1` (stereo unspecified), the cytotoxicity at 70.5 h is -4.2%. With `Cc1noc2ncnc(N3CCC(O)(Cn4ccnc4)CC3)c12`, the cytotoxicity at 70.5 h turned out to be 4.45%.

As for `Cn1cc(C(=O)N2CCC(c3ncc[nH]3)CC2)cn1`, the cytotoxicity at 70.5 h was -17.5%. On to `COCC(=O)N1CCN(C(=O)Cc2cccs2)[C@H]2CS(=O)(=O)C[C@H]21`, for which the cytotoxicity at 70.5 h was -5.46%. For the compound `CCN(CCn1cccn1)Cc1nc(-c2ccc(C)o2)oc1C`, the cytotoxicity at 70.5 h is 13%. Next, `Cc1cc(CC(C)Nc2nc(C3CCCC3)nc3c2cnn3C)[nH]n1` (stereo unspecified): -13%.

As to `Cc1cc(CNC(=O)C(c2ccc(F)cc2)N(C)C)n[nH]1` (stereo unspecified), the cytotoxicity at 70.5 h is 7.79%. Consider `CN(C)c1ncc(CNC2CC(=O)N(CCc3cccc(Cl)c3)C2)s1` (stereo unspecified), for which the cytotoxicity at 70.5 h is -4.44%.

`Cc1nc(-c2ccncc2)ncc1C(C)NC(=O)Cn1ccccc1=O` (stereo unspecified): the cytotoxicity at 70.5 h is 9.51%.

Take `Cc1nn(C)c2nc(N3CCNC(=O)C3C(C)C)sc12` (stereo unspecified): the cytotoxicity at 70.5 h is 10.4%. As to `CNC(=O)c1ccc(-n2c(COCC(=O)O)nc3c(C)cccc32)o1`, the cytotoxicity at 70.5 h is -1.45%. In the case of `COc1cccc(C2CCCN2C(=O)c2cc3c(nc2OC)CCC3)c1` (stereo unspecified) it was -2.74%; in that of `CCOC(=O)N1C[C@H]2CC[C@@H]1CN(Cc1ccccc1)C2`, -6.47%; in that of `CC(=O)N[C@@H]1CN(C2CCN(c3ccccc3F)CC2)C[C@H]1C(C)C`, -10.5%. For the compound `CC(C)(C)n1cc(C2=CCN(CCN3CCCCCC3)CC2)cn1`, the cytotoxicity at 70.5 h is -4.69%. As for `C[C@@H]1CN(Cc2cc3ccccc3n2C)CC[C@@]1(O)C1CC1`, the cytotoxicity at 70.5 h was -3.91%. Next, `O=C(c1ccc2c(c1)OCO2)N1C[C@@H](CN2CCCCC2)[C@@H](CO)C1`: -0.201%; `CN1CCN([C@@H]2CCN(Cc3ccc4cc(F)ccc4n3)C[C@H]2O)CC1`: -1.96%; `CCCn1ccnc1-c1nccn1CCN(C)C`: -2.58%. In the case of `O=C(O)[C@@H]1CN(C(=O)c2ccc(Cl)cc2)C[C@H]1c1cccc(F)c1`, the cytotoxicity at 70.5 h is -12.9%. Next, `CN(C)Cc1nnc(C2CCCN(c3nccc4ccccc34)C2)n1C` (stereo unspecified): -12.2%; `O=C1CC[C@H]2CN(c3ncc(F)cn3)CC[C@H]2N1CCc1ccccn1`: -5.32%.

These data come from ChEMBL document CHEMBL3507680, “University of Dundee, Gates Library screen for HepG2 cell viability”.
